Experimental data as given in patent EP4722212A1, “NOVEL COMPOUND FOR INHIBITING PROTEIN KINASES AND PHARMACEUTICAL COMPOSITION COMPRISING SAME” (Magicbullettherapeutics Co., Ltd., priority 2023, dated 2024).

How the values were obtained:
Src = molecular target: T1, Src (Homo sapiens, UniProt P12931); assay: Enzyme activity inhibition (Reaction Biology); type: biochemical
T1 construct: purchased Reaction Biology (RBC)
Method: (§1) [* <10 nM: A, <100 nM: B, >100 nM: C]. [Table 7]

BMX = molecular target: T2, BMX (Homo sapiens, UniProt P51813); assay: Enzyme activity inhibition (Reaction Biology); type: biochemical
T2 construct: purchased Reaction Biology (RBC)
T2 sequence (P51813 1-675): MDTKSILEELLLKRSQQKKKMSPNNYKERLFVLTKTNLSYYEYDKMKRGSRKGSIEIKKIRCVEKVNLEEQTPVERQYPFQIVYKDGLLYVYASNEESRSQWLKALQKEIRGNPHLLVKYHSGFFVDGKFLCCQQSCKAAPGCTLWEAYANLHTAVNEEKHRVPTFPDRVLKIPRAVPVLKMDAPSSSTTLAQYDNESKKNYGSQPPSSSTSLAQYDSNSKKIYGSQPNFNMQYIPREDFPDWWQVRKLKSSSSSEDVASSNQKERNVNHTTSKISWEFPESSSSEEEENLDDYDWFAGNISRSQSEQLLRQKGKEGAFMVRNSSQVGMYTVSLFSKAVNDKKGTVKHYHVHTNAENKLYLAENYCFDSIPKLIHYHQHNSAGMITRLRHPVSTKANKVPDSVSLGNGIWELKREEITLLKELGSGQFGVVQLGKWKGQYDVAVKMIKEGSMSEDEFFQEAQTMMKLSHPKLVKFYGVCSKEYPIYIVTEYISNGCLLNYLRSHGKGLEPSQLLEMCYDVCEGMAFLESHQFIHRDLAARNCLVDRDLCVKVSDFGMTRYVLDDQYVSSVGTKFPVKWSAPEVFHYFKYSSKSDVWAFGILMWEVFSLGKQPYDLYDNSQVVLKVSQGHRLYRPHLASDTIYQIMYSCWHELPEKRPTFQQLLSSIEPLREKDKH
Method: as §1

ACK1 = molecular target: T3, ACK1 (Homo sapiens, UniProt Q07912); assay: Enzyme activity inhibition (Reaction Biology); type: biochemical
T3 construct: purchased Reaction Biology (RBC)
Method: as §1

C4-2B = assay: Cell line inhibition analysis (CCK-8, 72 h); type: cell-based; conditions: read-out: Cell growth inhibition GI50 C4-2B
Method: (§2) C4-2B and 22Rv1 cells were purchased from ATCC and cultured according to the manufacturer's instructions. The cells were seeded in 96-well plates at 7×10^3cells/100 µl/well and allowed to attach for one day. After removing the culture medium, 90 µl/well of fresh culture medium was added, followed by addition of 10 µl/well of culture medium containing compounds at nine concentrations (0.076-500 µM) serially diluted 3-fold and DMSO control to achieve final concentrations of 0-50 µM, and then cultured for 72 hours in a 37 °C CO2 incubator. Cell proliferation after 72 hours was assessed by adding 10 µl/well of CCK-8 solution, orbital shaking for 30 seconds, then incubating at 37 °C CO2 incubator for 2 hours and measuring absorbance at 450 nm using a microplate reader. The measured absorbance values were corrected by subtracting the absorbance of wells containing only culture medium and CCK-8 solution, and GI50 values were calculated using GraphPad Prism 8 software.
(§3) Meanwhile, in a separate 96-well plate, cells were seeded at 7 × 10^3 cells/100 µl/well, allowed to attach for one day, CCK-8 solution was added, and absorbance was measured to establish the 'Growth (%) = 0' value.

22Rv1 = assay: Cell line inhibition analysis (CCK-8, 72 h); type: cell-based; conditions: Homo sapiens; 22Rv1, 72 hours; read-out: Cell growth inhibition GI50 22Rv1
Method: as §2, §3

T1 sequence (P12931 whole entry): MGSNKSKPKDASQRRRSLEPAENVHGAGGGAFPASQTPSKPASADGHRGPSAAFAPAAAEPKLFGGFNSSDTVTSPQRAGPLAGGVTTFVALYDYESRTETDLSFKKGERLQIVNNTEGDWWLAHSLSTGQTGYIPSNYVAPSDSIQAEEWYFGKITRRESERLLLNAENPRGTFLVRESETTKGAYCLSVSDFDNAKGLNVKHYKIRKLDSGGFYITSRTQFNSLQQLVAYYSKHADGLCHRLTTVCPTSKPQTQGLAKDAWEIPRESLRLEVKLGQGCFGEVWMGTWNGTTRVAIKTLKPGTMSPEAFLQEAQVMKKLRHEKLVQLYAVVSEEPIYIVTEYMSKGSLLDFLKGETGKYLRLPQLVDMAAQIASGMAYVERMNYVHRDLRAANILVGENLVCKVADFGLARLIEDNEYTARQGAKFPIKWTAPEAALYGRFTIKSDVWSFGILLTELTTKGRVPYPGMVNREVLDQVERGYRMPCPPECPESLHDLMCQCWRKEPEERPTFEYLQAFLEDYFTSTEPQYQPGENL
T3 sequence (Q07912 whole entry): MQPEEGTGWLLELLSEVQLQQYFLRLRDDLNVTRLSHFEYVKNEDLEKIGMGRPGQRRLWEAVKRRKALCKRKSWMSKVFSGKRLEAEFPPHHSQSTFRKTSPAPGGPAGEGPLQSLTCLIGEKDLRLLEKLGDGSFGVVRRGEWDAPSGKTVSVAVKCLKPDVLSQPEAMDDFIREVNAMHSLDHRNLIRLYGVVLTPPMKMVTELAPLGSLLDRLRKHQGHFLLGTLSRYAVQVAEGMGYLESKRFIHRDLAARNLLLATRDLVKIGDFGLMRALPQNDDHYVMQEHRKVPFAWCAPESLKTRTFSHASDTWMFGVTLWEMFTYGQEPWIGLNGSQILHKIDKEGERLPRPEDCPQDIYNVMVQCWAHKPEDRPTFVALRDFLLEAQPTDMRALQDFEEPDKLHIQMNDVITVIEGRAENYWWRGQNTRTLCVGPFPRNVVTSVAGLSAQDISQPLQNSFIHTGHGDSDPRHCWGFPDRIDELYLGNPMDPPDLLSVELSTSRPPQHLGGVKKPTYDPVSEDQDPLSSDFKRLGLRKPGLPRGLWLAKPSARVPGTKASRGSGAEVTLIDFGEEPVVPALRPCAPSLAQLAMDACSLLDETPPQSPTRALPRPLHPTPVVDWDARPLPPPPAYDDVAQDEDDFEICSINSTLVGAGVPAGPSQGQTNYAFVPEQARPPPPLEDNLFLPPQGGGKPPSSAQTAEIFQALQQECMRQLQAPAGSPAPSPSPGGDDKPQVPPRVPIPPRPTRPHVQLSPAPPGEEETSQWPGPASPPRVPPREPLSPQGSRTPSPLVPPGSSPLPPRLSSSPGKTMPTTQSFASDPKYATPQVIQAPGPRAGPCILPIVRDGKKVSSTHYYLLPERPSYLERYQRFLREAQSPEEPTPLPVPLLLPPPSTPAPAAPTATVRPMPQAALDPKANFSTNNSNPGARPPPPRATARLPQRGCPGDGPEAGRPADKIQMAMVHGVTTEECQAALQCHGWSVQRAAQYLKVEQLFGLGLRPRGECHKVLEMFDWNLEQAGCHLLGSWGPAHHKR

Structure (SMILES)	IC50 (Src)	IC50 (BMX)	IC50 (ACK1)	GI50 (22Rv1)	GI50 (C4-2B)
Cc1ccc(NC(=O)c2ccc(F)c(C(F)(F)F)c2)cc1N1Cc2cnc(N)nc2C2(CC2)C1=O [Compound 4, N-(3-(2'-amino-7'-oxo-5'H-spiro[cyclopropane-1,8'-pyrido[4,3-d]pyrimidine]-6'(7'H)-yl)-4-methylphenyl)-4-fluoro-3-(trifluoromethyl)benzamide]	–	–	–	1000 to 5000 nM	1000 to 5000 nM
Cc1ccc(NC(=O)c2ccc(Cl)c(C(F)(F)F)c2)cc1N1Cc2cnc(N)nc2C2(CC2)C1=O [Compound 5, N-(3-(2'-amino-7'-oxo-5'H-spiro[cyclopropane-1,8'-pyrido[4,3-d]pyrimidine]-6'(7'H)-yl)-4-methylphenyl)-4-chloro-3-(trifluoromethyl)benzamide]	–	–	–	1000 to 5000 nM	1000 to 5000 nM
COc1ccc(-c2cc(C(=O)Nc3ccc(C)c(N4Cc5cnc(N)nc5C5(CC5)C4=O)c3)cc(C(F)(F)F)c2)cc1 [Compound 20, N-(3-(2'-amino-7'-oxo-5'H-spiro[cyclopropane-1,8'-pyrido[4,3-d]pyrimidine]-6'(7'H)-yl)-4-methylphenyl)-4'-methoxy-5-(trifluoromethyl)-[1,1'-biphenyl]-3-carboxamide]	10 to 100 nM	10 to 100 nM	10 to 100 nM	–	< 1000 nM
Cc1ccc(NC(=O)c2cc(C(F)(F)F)ccc2Cl)cc1N1Cc2cnc(N)nc2C2(CC2)C1=O [Compound 25, N-(3-(2'-amino-7'-oxo-5'H-spiro[cyclopropane-1,8'-pyrido[4,3-d]pyrimidine]-6'(7'H)-yl)-4-methylphenyl)-2-chloro-5-(trifluoromethyl)benzamide]	> 100 nM	> 100 nM	10 to 100 nM	–	> 10000 nM
COCCN(C)c1cc(C(=O)Nc2ccc(C)c(N3Cc4cnc(N)nc4C4(CC4)C3=O)c2)cc(C(F)(F)F)c1 [Compound 31, N-(3-(2'-amino-7'-oxo-5'H-spiro[cyclopropane-1,8'-pyrido[4,3-d]pyrimidine]-6'(7'H)-yl)-4-methylphenyl)-3-((2-methoxyethyl)(methyl)amino)-5-(trifluoromethyl)benzamide]	10 to 100 nM	< 10 nM	10 to 100 nM	–	1000 to 5000 nM

Now from value to molecule, other results behind:

IC50 (Src)	IC50 (BMX)	IC50 (ACK1)	GI50 (22Rv1)	Structure (SMILES)	GI50 (C4-2B)
< 10 nM	< 10 nM	< 10 nM	–	Cc1cc(Nc2ncc3c(n2)C2(CC2)C(=O)N(c2cc(NC(=O)c4cccc(C(F)(F)F)c4)ccc2C)C3)n(C)n1 [Compound 1, N-(3-(2'-((1,3-dimethyl-1H-pyrazol-5-yl)amino)-7'-oxo-5'H-spiro[cyclopropane-1,8'-pyrido[4,3-d]pyrimidin]-6'(7'H)-yl)-4-methylphenyl)-3-(trifluoromethyl)benzamide]	1000 to 5000 nM
< 10 nM	< 10 nM	< 10 nM	< 1000 nM	Cc1cn(-c2cc(C(=O)Nc3ccc(C)c(N4Cc5cnc(N)nc5C5(CC5)C4=O)c3)cc(C(F)(F)F)c2)cn1 [Compound 6, N-(3-(2'-amino-7'-oxo-5'H-spiro[cyclopropane-1,8'-pyrido[4,3-d]pyrimidine]-6'(7'H)-yl)-4-methylphenyl)-3-(4-methyl-1H-imidazol-1-yl)-5-(trifluoromethyl)benzamide]	1000 to 5000 nM
< 10 nM	< 10 nM	< 10 nM	1000 to 5000 nM	COc1cc(C(=O)Nc2ccc(C)c(N3Cc4cnc(N)nc4C4(CC4)C3=O)c2)cc(C(F)(F)F)c1 [Compound 19, N-(3-(2'-amino-7'-oxo-5'H-spiro[cyclopropane-1,8'-pyrido[4,3-d]pyrimidine]-6'(7'H)-yl)-4-methylphenyl)-3-methoxy-5-(trifluoromethyl)benzamide]	1000 to 5000 nM
< 10 nM	< 10 nM	10 to 100 nM	–	Cc1ccc(NC(=O)c2cc(N3CCOCC3)cc(C(F)(F)F)c2)cc1N1Cc2cnc(N)nc2C2(CC2)C1=O [Compound 29, N-(3-(2'-amino-7'-oxo-5'H-spiro[cyclopropane-1,8'-pyrido[4,3-d]pyrimidine]-6'(7'H)-yl)-4-methylphenyl)-3-morpholino-5-(trifluoromethyl)benzamide]	1000 to 5000 nM
